Read-outs that look alike come from different tables or passages of the source.
What was measured:
Assay type in all cases: biochemical
c-Met = biological target: T1, c-Met (Homo sapiens, UniProt P08581); test: Kinase inhibition assay (33P transfer), c-Met; details: read-out: Met-1
T1 construct: Kinases are expressed as either kinase domains or full length constructs; made in house
Summary of the method: (§1)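 Kinase domains or full-length enzymes, GST- or polyHis-tagged, were expressed in E. coli or baculovirus High Five cells and affinity-purified. Transfer of 33PO4 from ATP onto plate-bound poly(Glu,Tyr) 4:1 or poly(Arg,Ser) 3:1 was counted by liquid scintillation after a 0.5% phosphoric acid wash. IC50 = concentration halving incorporation.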

AKT = biological target: T2, AKT (Homo sapiens, UniProt Q9Y243); test: Kinase inhibition assay (33P transfer), AKT; details: read-out: AKT3-1
T2 construct: Kinases are expressed as either kinase domains or full length constructs; made in house
T2 sequence (Q9Y243 whole entry, the tested form may be a part): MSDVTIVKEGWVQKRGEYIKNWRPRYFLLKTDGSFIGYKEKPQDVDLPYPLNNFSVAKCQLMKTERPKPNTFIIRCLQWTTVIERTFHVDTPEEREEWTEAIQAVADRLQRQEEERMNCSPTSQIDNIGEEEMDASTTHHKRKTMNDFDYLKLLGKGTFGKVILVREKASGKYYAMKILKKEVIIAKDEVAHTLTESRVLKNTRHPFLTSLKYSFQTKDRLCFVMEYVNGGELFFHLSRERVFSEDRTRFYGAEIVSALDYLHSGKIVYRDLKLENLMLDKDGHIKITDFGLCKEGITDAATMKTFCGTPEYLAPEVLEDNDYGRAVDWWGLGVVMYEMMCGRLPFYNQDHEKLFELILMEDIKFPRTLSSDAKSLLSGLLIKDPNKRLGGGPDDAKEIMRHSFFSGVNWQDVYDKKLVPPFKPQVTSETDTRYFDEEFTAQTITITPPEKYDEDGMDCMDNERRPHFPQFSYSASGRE
Summary of the method: (§2)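 Enzyme activity is taken as the amount of 33PO4 moved from ATP onto poly(Glu, Tyr) 4:1 or poly(Arg, Ser) 3:1 fixed to the plate surface. Unbound label is removed with 0.5% phosphoric acid before scintillation counting.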

EGFR = biological target: T3, EGFR (Homo sapiens, UniProt P00533); test: Kinase inhibition assay (33P transfer), EGFR; details: read-out: EGFR-1
T3 construct: Kinases are expressed as either kinase domains or full length constructs; made in house
Summary of the method: as §1

Lck = biological target: T4, Lck (Homo sapiens, UniProt P06239); test: Kinase inhibition assay (33P transfer), Lck; details: read-out: Lck-1
T4 construct: Kinases are expressed as either kinase domains or full length constructs; made in house
T4 sequence (P06239 whole entry, species assumed, the tested form may be a part): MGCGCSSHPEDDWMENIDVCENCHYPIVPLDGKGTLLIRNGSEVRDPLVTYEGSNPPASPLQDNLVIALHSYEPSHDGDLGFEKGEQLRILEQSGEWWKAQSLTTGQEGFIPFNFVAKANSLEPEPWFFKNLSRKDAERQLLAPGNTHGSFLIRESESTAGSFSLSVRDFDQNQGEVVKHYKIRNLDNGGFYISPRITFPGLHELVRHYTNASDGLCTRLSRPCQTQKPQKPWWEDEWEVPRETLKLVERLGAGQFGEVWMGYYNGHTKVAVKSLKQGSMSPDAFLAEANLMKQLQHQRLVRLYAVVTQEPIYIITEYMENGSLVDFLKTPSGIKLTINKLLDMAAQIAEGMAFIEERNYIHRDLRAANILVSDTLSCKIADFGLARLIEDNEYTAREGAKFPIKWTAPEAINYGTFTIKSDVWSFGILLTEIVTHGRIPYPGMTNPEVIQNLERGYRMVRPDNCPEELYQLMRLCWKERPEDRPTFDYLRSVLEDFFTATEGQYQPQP
Summary of the method: as §2

Zap-70 = biological target: T5, Zap-70 (Homo sapiens, UniProt P43403); test: Kinase inhibition assay (33P transfer), Zap-70; details: read-out: Zap-1
T5 construct: Kinases are expressed as either kinase domains or full length constructs; made in house
T5 sequence (P43403 1-619): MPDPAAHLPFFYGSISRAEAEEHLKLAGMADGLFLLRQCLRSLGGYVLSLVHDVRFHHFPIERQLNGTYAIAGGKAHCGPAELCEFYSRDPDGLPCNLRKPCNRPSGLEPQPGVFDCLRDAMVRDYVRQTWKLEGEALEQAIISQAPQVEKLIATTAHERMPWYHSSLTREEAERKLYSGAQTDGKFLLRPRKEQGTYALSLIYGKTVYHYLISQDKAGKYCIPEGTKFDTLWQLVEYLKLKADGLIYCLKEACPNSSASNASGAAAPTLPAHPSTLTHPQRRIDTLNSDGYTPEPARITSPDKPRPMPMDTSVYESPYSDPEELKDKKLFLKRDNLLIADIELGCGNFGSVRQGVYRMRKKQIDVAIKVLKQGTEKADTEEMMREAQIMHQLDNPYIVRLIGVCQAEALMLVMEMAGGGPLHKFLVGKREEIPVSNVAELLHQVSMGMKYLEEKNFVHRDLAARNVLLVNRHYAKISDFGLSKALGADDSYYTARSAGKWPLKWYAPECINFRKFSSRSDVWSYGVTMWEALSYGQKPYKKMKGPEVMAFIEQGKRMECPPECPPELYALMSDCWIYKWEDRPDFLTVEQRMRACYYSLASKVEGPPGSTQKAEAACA
Summary of the method: as §2

IGFR-1 [1] = biological target: T6, IGFR-1 (Homo sapiens, UniProt P08069); test: Kinase inhibition assay (33P transfer), IGFR-1; details: Table 2, class symbols A-E
T6 construct: Kinases are expressed as either kinase domains or full length constructs; made in house
T6 sequence (P08069 31-1367): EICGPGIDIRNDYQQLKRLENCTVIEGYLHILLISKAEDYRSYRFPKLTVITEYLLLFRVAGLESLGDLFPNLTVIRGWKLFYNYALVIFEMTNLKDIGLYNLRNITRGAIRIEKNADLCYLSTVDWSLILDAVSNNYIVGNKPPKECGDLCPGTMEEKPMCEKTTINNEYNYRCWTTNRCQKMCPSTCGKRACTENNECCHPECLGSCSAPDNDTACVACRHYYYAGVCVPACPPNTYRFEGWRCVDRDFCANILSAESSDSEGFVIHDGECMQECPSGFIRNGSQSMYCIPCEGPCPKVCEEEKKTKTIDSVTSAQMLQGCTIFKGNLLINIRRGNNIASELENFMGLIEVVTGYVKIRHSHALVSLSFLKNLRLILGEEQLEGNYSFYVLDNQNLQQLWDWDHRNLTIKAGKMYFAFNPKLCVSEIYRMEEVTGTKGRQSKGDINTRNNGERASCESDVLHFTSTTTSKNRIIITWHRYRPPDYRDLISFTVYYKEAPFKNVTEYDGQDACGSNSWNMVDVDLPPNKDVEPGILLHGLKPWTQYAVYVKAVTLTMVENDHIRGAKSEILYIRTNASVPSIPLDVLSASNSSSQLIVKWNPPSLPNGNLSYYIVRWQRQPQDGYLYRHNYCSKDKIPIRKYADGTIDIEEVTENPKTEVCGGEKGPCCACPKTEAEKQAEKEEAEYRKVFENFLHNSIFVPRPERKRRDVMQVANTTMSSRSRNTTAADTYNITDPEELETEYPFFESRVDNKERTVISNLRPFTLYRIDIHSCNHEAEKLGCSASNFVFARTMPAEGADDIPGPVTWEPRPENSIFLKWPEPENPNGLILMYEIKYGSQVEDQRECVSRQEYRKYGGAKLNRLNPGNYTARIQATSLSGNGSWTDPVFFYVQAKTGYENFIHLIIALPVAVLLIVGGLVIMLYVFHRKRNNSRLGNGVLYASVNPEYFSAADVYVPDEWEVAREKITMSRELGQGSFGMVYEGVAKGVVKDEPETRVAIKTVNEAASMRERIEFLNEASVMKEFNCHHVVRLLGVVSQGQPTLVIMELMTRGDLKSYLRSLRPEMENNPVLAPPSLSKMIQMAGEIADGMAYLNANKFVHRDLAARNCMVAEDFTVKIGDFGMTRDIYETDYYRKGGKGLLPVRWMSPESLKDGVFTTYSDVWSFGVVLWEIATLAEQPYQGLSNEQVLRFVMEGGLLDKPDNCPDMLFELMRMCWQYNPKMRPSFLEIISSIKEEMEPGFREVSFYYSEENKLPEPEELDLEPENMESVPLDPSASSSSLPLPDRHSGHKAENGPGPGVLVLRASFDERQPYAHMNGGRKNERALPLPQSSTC

Itk = biological target: T7, Itk (Homo sapiens, UniProt Q08881); test: Kinase inhibition assay (33P transfer), Itk; details: read-out: Itk-1
T7 construct: Kinases are expressed as either kinase domains or full length constructs; made in house
T7 sequence (Q08881 1-620): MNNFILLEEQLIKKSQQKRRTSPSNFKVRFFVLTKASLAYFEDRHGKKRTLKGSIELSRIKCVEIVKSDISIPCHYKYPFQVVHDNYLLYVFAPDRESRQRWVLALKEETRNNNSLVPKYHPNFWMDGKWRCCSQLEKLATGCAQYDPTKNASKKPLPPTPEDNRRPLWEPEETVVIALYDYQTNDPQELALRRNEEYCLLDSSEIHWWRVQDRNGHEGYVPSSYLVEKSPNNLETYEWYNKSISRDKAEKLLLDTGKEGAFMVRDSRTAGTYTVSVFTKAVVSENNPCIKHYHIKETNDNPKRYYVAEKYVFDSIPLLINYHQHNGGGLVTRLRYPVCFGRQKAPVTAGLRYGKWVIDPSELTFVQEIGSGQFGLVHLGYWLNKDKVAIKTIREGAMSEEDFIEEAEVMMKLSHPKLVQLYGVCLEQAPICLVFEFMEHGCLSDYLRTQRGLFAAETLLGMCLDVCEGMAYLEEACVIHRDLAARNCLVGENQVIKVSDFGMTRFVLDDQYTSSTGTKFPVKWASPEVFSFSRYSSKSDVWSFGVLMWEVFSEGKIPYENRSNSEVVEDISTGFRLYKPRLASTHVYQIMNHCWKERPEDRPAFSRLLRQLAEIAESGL
Summary of the method: as §1

Kdr = biological target: T8, Kdr (Homo sapiens, UniProt P35968); test: Kinase inhibition assay (33P transfer), Kdr; details: read-out: KDR-1
T8 construct: Kinases are expressed as either kinase domains or full length constructs; made in house
T8 sequence (P35968 20-1356, species assumed): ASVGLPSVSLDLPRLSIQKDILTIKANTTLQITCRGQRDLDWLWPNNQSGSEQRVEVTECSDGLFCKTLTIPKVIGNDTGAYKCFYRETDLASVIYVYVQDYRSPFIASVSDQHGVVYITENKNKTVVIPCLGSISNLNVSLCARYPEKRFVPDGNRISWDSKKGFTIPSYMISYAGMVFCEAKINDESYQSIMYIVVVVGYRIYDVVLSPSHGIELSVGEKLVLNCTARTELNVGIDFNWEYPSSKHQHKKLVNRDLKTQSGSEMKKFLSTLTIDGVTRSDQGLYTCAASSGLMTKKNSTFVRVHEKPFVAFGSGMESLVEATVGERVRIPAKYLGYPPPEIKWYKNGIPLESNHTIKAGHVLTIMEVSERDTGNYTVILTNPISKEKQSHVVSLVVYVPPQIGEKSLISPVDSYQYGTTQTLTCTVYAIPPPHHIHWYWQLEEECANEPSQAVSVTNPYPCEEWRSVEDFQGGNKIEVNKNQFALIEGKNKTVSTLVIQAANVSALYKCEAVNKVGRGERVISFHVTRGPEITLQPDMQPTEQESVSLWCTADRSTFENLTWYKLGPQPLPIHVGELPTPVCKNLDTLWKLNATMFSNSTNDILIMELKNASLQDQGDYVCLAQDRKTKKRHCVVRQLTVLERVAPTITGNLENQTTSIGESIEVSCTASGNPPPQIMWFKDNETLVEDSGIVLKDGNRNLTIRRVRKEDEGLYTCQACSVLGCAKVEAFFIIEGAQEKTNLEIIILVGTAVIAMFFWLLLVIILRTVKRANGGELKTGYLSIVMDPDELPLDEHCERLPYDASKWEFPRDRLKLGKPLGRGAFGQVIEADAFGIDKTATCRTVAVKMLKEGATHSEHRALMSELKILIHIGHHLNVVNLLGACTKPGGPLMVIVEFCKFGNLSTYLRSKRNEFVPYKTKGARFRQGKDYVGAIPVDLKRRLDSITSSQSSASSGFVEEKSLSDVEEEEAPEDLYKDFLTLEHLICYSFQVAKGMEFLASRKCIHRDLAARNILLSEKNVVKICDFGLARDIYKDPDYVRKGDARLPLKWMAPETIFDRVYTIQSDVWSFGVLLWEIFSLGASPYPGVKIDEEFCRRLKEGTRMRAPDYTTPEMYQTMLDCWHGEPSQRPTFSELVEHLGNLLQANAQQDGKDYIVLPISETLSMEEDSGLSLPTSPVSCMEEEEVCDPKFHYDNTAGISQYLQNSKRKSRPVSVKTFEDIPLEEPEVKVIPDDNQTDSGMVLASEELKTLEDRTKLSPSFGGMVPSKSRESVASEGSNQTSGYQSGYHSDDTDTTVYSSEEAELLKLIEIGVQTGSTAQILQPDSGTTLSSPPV
Summary of the method: as §2

Tek = biological target: T9, Tek (Homo sapiens, UniProt Q02763); test: Kinase inhibition assay (33P transfer), Tek; details: read-out: Tek-1
T9 construct: Kinases are expressed as either kinase domains or full length constructs; made in house
Summary of the method: as §1

ErbB4 = biological target: T10, ErbB4 (Homo sapiens, UniProt Q15303); test: Kinase inhibition assay (33P transfer), ErbB4; details: read-out: ErbB4-1
T10 construct: Kinases are expressed as either kinase domains or full length constructs; made in house

EPHB4 = biological target: T11, EPHB4 (Homo sapiens, UniProt P54760); test: Kinase inhibition assay (33P transfer), EPHB4; details: read-out: EPHB4-1
T11 construct: Kinases are expressed as either kinase domains or full length constructs; made in house
T11 sequence (P54760 16-987): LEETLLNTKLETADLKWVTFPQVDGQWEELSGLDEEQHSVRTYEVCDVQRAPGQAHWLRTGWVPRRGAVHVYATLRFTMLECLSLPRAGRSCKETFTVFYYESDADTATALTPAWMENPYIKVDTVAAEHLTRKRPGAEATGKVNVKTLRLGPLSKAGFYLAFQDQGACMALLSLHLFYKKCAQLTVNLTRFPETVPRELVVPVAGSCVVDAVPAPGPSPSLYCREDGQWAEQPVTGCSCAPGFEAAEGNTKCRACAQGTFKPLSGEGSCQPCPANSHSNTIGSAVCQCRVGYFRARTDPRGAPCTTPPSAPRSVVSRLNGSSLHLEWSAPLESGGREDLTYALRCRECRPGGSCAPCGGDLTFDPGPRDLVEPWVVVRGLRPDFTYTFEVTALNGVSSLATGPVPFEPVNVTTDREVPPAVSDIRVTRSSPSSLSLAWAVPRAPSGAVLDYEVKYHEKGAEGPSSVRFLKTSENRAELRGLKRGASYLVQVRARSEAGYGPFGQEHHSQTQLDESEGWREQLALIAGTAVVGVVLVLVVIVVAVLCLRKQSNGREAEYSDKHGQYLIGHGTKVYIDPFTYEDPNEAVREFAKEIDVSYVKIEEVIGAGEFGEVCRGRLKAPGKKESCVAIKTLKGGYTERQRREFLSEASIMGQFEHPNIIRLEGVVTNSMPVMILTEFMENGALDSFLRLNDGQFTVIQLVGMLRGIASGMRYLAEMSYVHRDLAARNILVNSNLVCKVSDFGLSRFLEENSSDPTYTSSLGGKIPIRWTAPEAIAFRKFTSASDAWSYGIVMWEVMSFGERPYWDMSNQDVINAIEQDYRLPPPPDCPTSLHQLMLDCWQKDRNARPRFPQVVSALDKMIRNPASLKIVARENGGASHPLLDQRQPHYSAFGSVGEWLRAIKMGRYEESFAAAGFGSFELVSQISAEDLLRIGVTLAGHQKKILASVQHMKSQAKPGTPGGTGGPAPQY

IGFR-1 [2] = biological target: T6, IGFR-1; test: Kinase inhibition assay (33P transfer), IGFR-1; details: Table 2, kinase inhibition class
[3] = Table 2, kinase inhibition class

T1 sequence (P08581 25-1390): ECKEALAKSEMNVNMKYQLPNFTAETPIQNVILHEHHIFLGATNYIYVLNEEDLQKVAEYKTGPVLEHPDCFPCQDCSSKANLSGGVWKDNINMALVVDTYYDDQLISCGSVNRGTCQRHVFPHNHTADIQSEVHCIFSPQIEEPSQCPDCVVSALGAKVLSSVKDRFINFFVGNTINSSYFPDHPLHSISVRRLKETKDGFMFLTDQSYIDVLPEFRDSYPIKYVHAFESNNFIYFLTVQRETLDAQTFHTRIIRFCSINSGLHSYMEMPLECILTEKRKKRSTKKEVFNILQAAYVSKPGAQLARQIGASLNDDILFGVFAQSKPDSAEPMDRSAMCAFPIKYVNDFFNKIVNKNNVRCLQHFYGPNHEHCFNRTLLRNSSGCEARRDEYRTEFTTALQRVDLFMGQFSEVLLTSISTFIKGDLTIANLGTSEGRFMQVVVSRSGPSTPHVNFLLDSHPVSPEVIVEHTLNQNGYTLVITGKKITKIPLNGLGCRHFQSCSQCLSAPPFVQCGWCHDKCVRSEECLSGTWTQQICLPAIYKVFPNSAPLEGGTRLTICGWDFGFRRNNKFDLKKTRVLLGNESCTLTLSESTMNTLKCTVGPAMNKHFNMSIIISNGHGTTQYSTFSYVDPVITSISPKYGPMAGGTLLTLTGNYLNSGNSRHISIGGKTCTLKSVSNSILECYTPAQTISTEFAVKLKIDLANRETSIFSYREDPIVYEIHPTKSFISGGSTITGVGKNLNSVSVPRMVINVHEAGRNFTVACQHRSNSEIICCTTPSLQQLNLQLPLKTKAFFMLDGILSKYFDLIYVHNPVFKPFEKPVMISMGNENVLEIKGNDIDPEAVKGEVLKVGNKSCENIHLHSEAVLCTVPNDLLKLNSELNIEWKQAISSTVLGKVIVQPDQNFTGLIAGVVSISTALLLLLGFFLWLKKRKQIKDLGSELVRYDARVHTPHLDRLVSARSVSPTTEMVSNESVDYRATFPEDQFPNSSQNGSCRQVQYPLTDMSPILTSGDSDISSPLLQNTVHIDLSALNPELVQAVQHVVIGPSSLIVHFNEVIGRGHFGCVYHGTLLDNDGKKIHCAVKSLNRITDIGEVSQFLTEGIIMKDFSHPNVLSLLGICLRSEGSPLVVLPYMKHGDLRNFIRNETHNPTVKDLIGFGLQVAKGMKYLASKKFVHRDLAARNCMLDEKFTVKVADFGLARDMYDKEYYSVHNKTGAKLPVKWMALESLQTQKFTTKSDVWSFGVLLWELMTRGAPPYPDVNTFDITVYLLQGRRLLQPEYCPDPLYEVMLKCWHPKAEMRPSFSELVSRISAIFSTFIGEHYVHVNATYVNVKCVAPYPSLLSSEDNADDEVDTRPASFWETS

Compound: COc1ccc(Nc2ncnc(N(C)c3ccc(OC(F)(F)F)cc3)n2)cc1OC [Compound 866]
- IC50 (c-Met; Table 2, class symbols A-E): 0.949 to 5.7 µM
- IC50 (AKT; Table 2, class symbols A-E): > 10.7 µM
- IC50 (EGFR; Table 2, class symbols A-E): 0.949 to 5.7 µM
- IC50 (Lck; Table 3, class symbols): 5.7 to 8.31 µM
- IC50 (Zap-70; Table 3, class symbols): > 10.7 µM
- IC50 (IGFR-1 [1]): > 10.7 µM
- IC50 (Itk; Table 3, class symbols): > 10.7 µM
- IC50 (Kdr; Table 3, class symbols): 0.949 to 5.7 µM

Compound: COc1ccc(Nc2ncnc(N(C)c3ccccc3OC(F)(F)F)n2)cc1OC [Compound 867]
- IC50 (c-Met; Table 2, class symbols A-E): < 0.949 µM
- IC50 (AKT; Table 2, class symbols A-E): 0.949 to 5.7 µM
- IC50 (EGFR; Table 2, class symbols A-E): 0.949 to 5.7 µM
- IC50 (Lck; Table 3, class symbols): 0.949 to 5.7 µM
- IC50 (Zap-70; Table 3, class symbols): > 10.7 µM
- IC50 (IGFR-1 [1]): > 10.7 µM
- IC50 (Itk; Table 3, class symbols): > 10.7 µM
- IC50 (Kdr; Table 3, class symbols): 8.31 to 10.7 µM

Compound: COc1cc(Nc2ncnc(Nc3cc(C)ccc3C)n2)cc(OC)c1OC [Compound 932]
- IC50 (Tek): 6.29 to 9.18 µM
- IC50 (ErbB4): 1.05 to 6.29 µM
- IC50 (c-Met; [3]): 6.29 to 9.18 µM
- IC50 (EPHB4): > 11.8 µM
- IC50 (AKT; [3]): > 11.8 µM
- IC50 (IGFR-1 [2]): 1.05 to 6.29 µM
- IC50 (EGFR; [3]): 1.05 to 6.29 µM
- IC50 (Lck; Table 3): 1.05 to 6.29 µM
- IC50 (Zap-70; Table 3): > 11.8 µM
- IC50 (Itk; Table 3): > 11.8 µM
- IC50 (Kdr; Table 3): < 1.05 µM

Compound: COC(=O)c1cccc(Nc2ncnc(-n3c(Cl)nc4ccccc43)n2)c1 [Compound 1066]
- IC50 (c-Met; Table 2, class symbols A-E): 6.3 to 9.19 µM
- IC50 (AKT; Table 2, class symbols A-E): 6.3 to 9.19 µM
- IC50 (EGFR; Table 2, class symbols A-E): 6.3 to 9.19 µM
- IC50 (Lck; Table 3, class symbols): > 11.8 µM
- IC50 (Zap-70; Table 3, class symbols): > 11.8 µM
- IC50 (IGFR-1 [1]): > 11.8 µM
- IC50 (Itk; Table 3, class symbols): > 11.8 µM
- IC50 (Kdr; Table 3, class symbols): 6.3 to 9.19 µM

Compound: CC(C)Nc1ncccc1-c1ncnc(Nc2cccc(CO)c2)n1 [Compound 1114]
- IC50 (c-Met; Table 2, class symbols A-E): 10.4 to 13.4 µM
- IC50 (AKT; Table 2, class symbols A-E): > 13.4 µM
- IC50 (EGFR; Table 2, class symbols A-E): 10.4 to 13.4 µM
- IC50 (Lck; Table 3, class symbols): 1.19 to 7.13 µM
- IC50 (Zap-70; Table 3, class symbols): 10.4 to 13.4 µM
- IC50 (IGFR-1 [1]): > 13.4 µM
- IC50 (Itk; Table 3, class symbols): 10.4 to 13.4 µM
- IC50 (Kdr; Table 3, class symbols): 1.19 to 7.13 µM

Compound: OCc1cccc(Nc2ncnc(-c3cccnc3Nc3ccccc3)n2)c1 [Compound 1115]
- IC50 (c-Met; Table 2, class symbols A-E): 1.08 to 6.48 µM
- IC50 (AKT; Table 2, class symbols A-E): > 12.1 µM
- IC50 (EGFR; Table 2, class symbols A-E): 1.08 to 6.48 µM
- IC50 (Lck; Table 3, class symbols): 1.08 to 6.48 µM
- IC50 (Zap-70; Table 3, class symbols): > 12.1 µM
- IC50 (IGFR-1 [1]): > 12.1 µM
- IC50 (Itk; Table 3, class symbols): > 12.1 µM
- IC50 (Kdr; Table 3, class symbols): < 1.08 µM

Compound: CC(C)Nc1ncccc1-c1ncnc(Nc2ccc3[nH]ncc3c2)n1 [Compound 1116]
- IC50 (c-Met; Table 2, class symbols A-E): 1.15 to 6.93 µM
- IC50 (AKT; Table 2, class symbols A-E): 10.1 to 13 µM
- IC50 (EGFR; Table 2, class symbols A-E): 1.15 to 6.93 µM
- IC50 (Lck; Table 3, class symbols): 1.15 to 6.93 µM
- IC50 (Zap-70; Table 3, class symbols): > 13 µM
- IC50 (IGFR-1 [1]): 1.15 to 6.93 µM
- IC50 (Itk; Table 3, class symbols): > 13 µM
- IC50 (Kdr; Table 3, class symbols): 6.93 to 10.1 µM

— US7074789B2, “Kinase inhibitors” (Amgen Inc., priority 1999, dated 2006)
